# Laboratory results reported in US7038033B2, “Nematode neuromuscular junction GABA receptors subunits” (University of Utah Research Foundation, priority 1998, dated 2006).
# Tests used:
# UNC-49C = assay: Two-electrode voltage clamp of Xenopus oocytes injected with UNC-49C RNA; format: cell-based, C. elegans; settings: any concentration
# Protocol: (§1) Oocytes were removed from Xenopus laevis frogs anesthetized by immersion in 0.2% tricaine for 15-30 minutes. Harvested ovarian lobes were defolliculated by incubation in 2 mg/ml of collagenase (Type IA, Sigma) for 2 hours at room temperature on an orbital shaker in calcium-free ND-96 solution containing in mM: 96 NaCl, 2 KCl, 1 MgCl2, and 5 HEPES (pH=7.6). The oocytes were rinsed 5-6 times with a Barth's solution that contained (in mM): 88 NaCl, 1 KCl, 0.41 CaCl2, 0.33 Ca(NO3)2, 1 MgSO4, 2.4 NaHCO3 and 10 HEPES (pH=7.4), and selected stage V-VI oocytes were stored at 18C in Barth's solution supplemented with 1 mM Na-Pyruvate, 0.01 mg/ml gentamycin and an antibiotic-antimycotic solution containing 100 units/ml of penicillin, 100 μg/ml streptomycin and 0.25 μg/ml of Amphotericin B (Gibco BRL).
# (§2) Oocytes were injected with cRNA (prepared using the mMessage mMachine kit, Ambion) into the cytoplasm 24 hours later. Glass capillary tubes (World Precision Instruments) were pulled to a fine tip on a vertical micropipette puller (David Kopf) and broken back to an outside diameter of 21 μm. RNA stocks were diluted to a final concentration of 0.75 μg/μl and injected into the oocytes (32 nl) with a microinjector (World Precision Instruments).
# (§3) Electrophysiological recordings were performed 3-7 days following injection and were carried out at room temperature in a control Ringers solution containing in mM: 115 NaCl, 2.5 KCl, 1.0 BaCL2, and 10 HEPES (pH=7.4). Two electrode voltage clamp recordings were obtained with a Geneclamp amplifier (Axon Instruments) using […] KCl-filled microelectrodes (1-5 M). Recordings were carried out at a holding potential of −60 mV. Concentration-effect data were fit to the logistic equation: I=Imax/{1+(EC50/[agonist])^nH}, where Imax is the maximal current, [agonist] is the concentration, EC50 is the concentration of agonist resulting in half maximal activation and nH is an empirical parameter describing the steepness of fit and having the same meaning as the Hill coefficient. NFIT (Island Products) was used for non-linear curve fitting. Data are presented as the mean S.E.M.; n is the number of oocytes tested. All combinations of subunits were tested in parallel in at least two independent experiments (at least 4 oocytes for each combination of mRNAs per experiment). The effect of incorporating the UNC-49C subunit was consistent from one experiment to another. Single channel recordings were performed as described in except that 1 mM GABA was applied continuously. Single channel conductance was determined by fitting Gaussian curves to all points histograms.
# [1] = molecular target: UNC-49B homomeric GABA receptor (Caenorhabditis elegans, UniProt G5EEY3); assay: Two-electrode voltage clamp of Xenopus oocytes injected with UNC-49B.1 mRNA; format: cell-based, C. elegans; settings: for response of oocytes to agonist: applied at 1 mM or 10 mM
# UNC-49B homomeric GABA receptor, sequence (G5EEY3 entry or part of it): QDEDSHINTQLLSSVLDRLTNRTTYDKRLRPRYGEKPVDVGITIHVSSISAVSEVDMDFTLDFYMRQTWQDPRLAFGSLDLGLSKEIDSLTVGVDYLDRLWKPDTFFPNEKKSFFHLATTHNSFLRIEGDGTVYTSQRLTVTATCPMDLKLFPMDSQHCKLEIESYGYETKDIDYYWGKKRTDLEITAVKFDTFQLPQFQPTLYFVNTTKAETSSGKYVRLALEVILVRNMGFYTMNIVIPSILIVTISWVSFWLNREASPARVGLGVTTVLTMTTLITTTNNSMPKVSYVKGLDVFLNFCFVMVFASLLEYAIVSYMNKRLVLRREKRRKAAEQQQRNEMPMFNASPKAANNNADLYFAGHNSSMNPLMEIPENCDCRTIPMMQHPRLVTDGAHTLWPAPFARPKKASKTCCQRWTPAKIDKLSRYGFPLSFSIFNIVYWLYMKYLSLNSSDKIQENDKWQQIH
# Protocol: as §1, §2, §3
# [2] = molecular target: UNC-49B/C heteromeric GABA receptor (Caenorhabditis elegans, UniProt G5EE10+G5EEY3); assay: Two-electrode voltage clamp of Xenopus oocytes injected with equal amounts of UNC-49B and UNC-49C RNA; format: cell-based; settings: Xenopus oocytes co-expressing UNC-49B and UNC-49C
# UNC-49B/C heteromeric GABA receptor, sequence (G5EE10 entry or part of it): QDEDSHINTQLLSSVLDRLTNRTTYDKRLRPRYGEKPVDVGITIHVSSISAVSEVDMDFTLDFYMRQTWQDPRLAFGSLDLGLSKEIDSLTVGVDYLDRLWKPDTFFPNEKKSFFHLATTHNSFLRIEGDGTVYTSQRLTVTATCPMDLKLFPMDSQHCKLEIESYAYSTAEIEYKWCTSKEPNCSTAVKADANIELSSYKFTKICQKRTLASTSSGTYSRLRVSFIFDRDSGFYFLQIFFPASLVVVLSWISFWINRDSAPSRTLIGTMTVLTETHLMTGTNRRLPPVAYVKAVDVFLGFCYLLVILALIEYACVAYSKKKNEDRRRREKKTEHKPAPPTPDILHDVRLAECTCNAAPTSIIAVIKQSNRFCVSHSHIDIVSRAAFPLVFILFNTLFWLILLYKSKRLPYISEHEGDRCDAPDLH
# UNC-49B/C heteromeric GABA receptor, sequence (G5EEY3 entry or part of it): as the sequence (G5EEY3 entry or part of it) above
# Protocol: as §1
# Oocytes were injected with cRNA (prepared using the mMessage mMachine kit, Ambion) into the cytoplasm 24 hours later. […]
# Electrophysiological recordings were performed 3-7 days following injection and were carried out at room temperature in a control Ringers solution containing in mM: 115 NaCl, 2.5 KCl, 1.0 BaCL2, and 10 HEPES (pH=7.4). […] Single channel conductance was determined by fitting Gaussian curves to all points histograms.
Structure (SMILES),response of oocytes to agonist (UNC-49C),"currents produced by agonist ([1]; UNC-49B-expressing oocytes, 10 mM, n=4)",current when exposed to agonist ([1]; UNC-49B.1-injected Xenopus oocytes),"EC50 ([1]; UNC-49B.1-injected Xenopus oocytes, holding potential -60 mV, representative experiment, read-out: GABA concentration required to produce half-maximal channel activity (EC50)) [µM]","Hill coefficient ([1]; UNC-49B.1-injected Xenopus oocytes, representative experiment)",EC50 [2] [µM],Hill coefficient [2],response of oocytes to agonist ([1]; UNC-49B-expressing oocytes)
NCCC(=O)O [β-alanine],equally unresponsive,only slightly greater than baseline noise,–,–,–,–,–,–
"NCCCC(=O)O [GABA, gamma-aminobutyric acid]",failed to respond,–,"robust, desensitizing, dose-dependent current",43.7,2.94,108,1.33,–
N[C@@H](CCC(=O)O)C(=O)O [glutamate],equally unresponsive,–,–,–,–,–,–,did not respond
NCC(=O)O [glycine],equally unresponsive,–,–,–,–,–,–,did not respond
